Measurements as given in patent US20090281184A1, “PHARMACEUTICAL FOR PREVENTION AND TREATMENT OF OPHTHALMIC DISEASE INDUCED BY IN-CREASE IN VASOPERMEABILITY” (SAPPORO MEDICAL UNIVERSITY, priority 2005, published 2009).

Experiments:
GDNF [1] = test: Suppression of GDNF expression by AGE-2 in human astrocyte (RT-PCR, ELISA); assay type: cell-based; settings: p<0.001; for inhibition of the effect of AGE-2 to suppress the expression of GDNF, protein level: combination with AGE-2, ELISA of cell culture medium; for inhibition of the effect of AGE-2 to suppress the expression of GDNF, mRNA level: combination with AGE-2, RT-PCR
Experimental: Human astrocyte was treated with AGE-2 alone, or combinations of AGE-2 with atRA or Am580, and alterations in the expression of GDNF was evaluated in the same manner as FIG. 6.

[2] = tested on: MDCK (Madin Darby Canine Kidney) cell; test: Barrier function evaluation with MDCK cells, same parameters as Example 2; assay type: cell-based, dog
Source text: The vascular endothelial cell used in Example 2 is the primary culture strain obtained from the bovine brain, which has an advantage of capable of reproducing in vitro conditions more similar to those in a living body. However, unlike those called as cell lines, the strain of the primary cultured cell has limited number of division and a slow division rate, and therefore has an aspect of unsuitability for an experimental system that requires repeated examination. Accordingly, MDCK (Madin Darby Canine Kidney) cell as dog-derived kidney tubule cell (easily available commercially) was used, which cell is optimum for the evaluation of the barrier function and has been experienced of being already used in variety of experimental systems. The effect of synthetic retinoids was evaluated with the same parameter as those in Example 2. The experimental groups in FIG. 5 are as follows:
1. Non-treated group 2. atRA (RARα agonist) 3. Am80 (RARα agonist) 4. Am580 (RARα agonist)
In FIG. 5, the non-treated group (control) is defined as “1”, and relative differences thereto are shown as graphs.

diabetic model mice = test: Streptozotocin-induced diabetic model mice, FITC dextran in the eyes as index of vascular permeability; assay type: in vivo, mouse; settings: atRA 1 mg/kg intraperitoneally
Experimental: Male 5 to 6 week-old C57/BL6 mice were administered with streptozotocin and diabetes was chemically induce in these model mice. To these diabetic model mice, retinoids were administered to evaluate clinical effectiveness. For reference, mice without the diabetic induction were used as control.
Experimental groups: 1. Control (group of non-induction of diabetes) 2. Diabetic group (non-treated group) 3. Diabetic group (atRA-treated group) 4. Diabetic group (Am580-treated group) 5. Diabetic group (Am80-treated group)
The onset of diabetes was confirmed by periodical measurement of glucose in urine, and after all the mice became strongly positive, by measurement of blood glucose. The mice of 4 to 6 week-pathological period with diabetes were used. […] Mice were divided into 4 groups as mentioned above for the treatment. The treatment were performed by administrating atRA (1 mg/kg), Am580 (3.75 mg/kg), and Am80 (4.5 mg/kg) intraperitoneally every other day for 4 days. […] As the index of the permeability, the FITC in the eyes was measured, and the value was standardized with the FITC amount contained in cardiac blood to minimize a potential difference between each amount of dose.
As biological parameters, blood sugar (BS) and urine sugar (US) were evaluated.

GDNF [3] = test: GDNF expression in primary cultured human astrocyte; assay type: cell-based; settings: for GDNP expression / suppression of the vascular permeability (expression of GDNF divided by expression of VEGF): human astrocyte; for GDNP expression: FIG. 6; for suppression of the vascular permeability (expression of GDNF divided by expression of VEGF): non-treated group as inner control; for expression of GDNF mRNA: preliminary experiment, see FIG. 6
Experimental: (§1) In Examples 1 and 2, U373MG cells, a cell line having the characteristic as astrocyte, was used for convenience of the experiment. […] Therefore, studies were made to evaluate whether or not the enhancement of the expression of GDNF by the retinoid can be observed also in the system using human astrocyte. The astrocyte used in the experiment was a primary cultured cell isolated from the human brain, and was purchased from Cambrex Corporation, USA. This means provides an advantage that observation is achievable under environments closer to those in vivo.
Whilst, the expression of VRGF that is a strong vascular hyperpermeability factor was suppressed in the treated groups. The level of suppression of the vascular permeability in the treated groups is represented by a relative amount of the two factors that define permeability, specifically, a value obtained by dividing a value of the expression of GDNF that is the permeability-suppressing factor by a value of the expression of VEGF that is a hyperpermeability factor. In this case, a value of the expression of each of non-treated groups is used as an inner control, and an amount of the expression of the treated groups is calculated from the concentration on the gel and the area. […] The experimental groups in FIG. 6 are as follows, and the upper figure indicates the photographs of the gel, the lower figure indicates visualized differences of relative amounts obtained by the quantification thereof.

VEGF = VEGF expression in primary cultured human astrocyte; assay type: cell-based; settings: treated groups, FIG. 6
Experimental: as §1
Whilst, the expression of VRGF that is a strong vascular hyperpermeability factor was suppressed in the treated groups. […] In this case, a value of the expression of each of non-treated groups is used as an inner control, and an amount of the expression of the treated groups is calculated from the concentration on the gel and the area. […] The experimental groups in FIG. 6 are as follows, and the upper figure indicates the photographs of the gel, the lower figure indicates visualized differences of relative amounts obtained by the quantification thereof.

[4] = tested on: vascular endothelial cells obtained from the bovine brain; test: Barrier function of vascular endothelial cells co-cultured with atRA-treated U373MG cells (transwell double chamber); assay type: cell-based; settings: p<0.05
Experimental: In order to evaluate whether or not the alteration induces physiological reactions, co-cultivation with vascular endothelial was performed. […] As can be understood from FIG. 3, the […] cells (astrocytes) were grown as effector cells in the outer chamber, and treated with atRA and cultured for additional 24 hours. In the inner chamber separately prepared, vascular endothelial cells obtained from the bovine brain were cultured to prepare beforehand for forming a dense single layer cell-sheet.
The outer chamber with U373MG cells and the inner chamber with the vascular endothelial cells were jointed to start the co-culture for evaluation of the barrier function that is a tight-function of the vascular endothelial cells. […] In this experiment, as functional alterations of the vascular endothelial cells by the influence of the astrocyte, the difference in electrical resistance inside and outside of the vascular endothelial cells, and the mobility to the outer chamber of the labeled substance (^14C-labeled) added in the inner chamber were evaluated as indexes as the vascular permeability. The activity of the transferred radioactive substance is indicated as dpm (disintegrations per minutes).

GDNF [5] = test: GDNF expression by atRA treatment in human glioma cells (quantitative RT-PCR, Southern blot); assay type: cell-based; settings: U373MG cells
Experimental: U373MG cells were cultured in a relatively dense state, and were treated with 10 nM or 100 nM of all-trans retinoic acid (atRA). mRNA was extracted from the cells and subjected to quantitative RT-PCR, and then changes in the gene expression were analyzed and quantified by the Southern blot method. Reverse transcription was performed by using a kit manufactured by Invitrogen. The reagents were prepared according to the manufacturer's instructions, and reacted at 42° C. for 30 minutes. The product was used for PCR after denaturation of reverse transcriptase at 96° C. for 5 minutes. For the PCR reaction, each reagent manufactured by TaKaRa was prepared by mixing according to the manufacturer's instructions, and the following reactions were performed:
1) 94° C., 30 seconds 2) 94° C., 15 seconds 3) 52° C., 15 seconds 4) 72° C., 30 seconds 5) repeat of the reactions from 2) to 4) for 32 times 6) 72° C., 7 minutes
The final reaction product was used for the Southern blot test.

[6] = tested on: vascular endothelial cells; test: Direct treatment of vascular endothelial cells in the absence of astrocyte; assay type: cell-based; settings: FIG. 8
Source text: It is known that the vascular endothelial cells also have retinoid receptors, and accordingly, there remains a possibility that atRA contained in the cell culture medium effected directly on the vascular endothelial cells during the co-culture. However, when a recombinant protein of GDNF was directly effected on the vascular endothelial cells in the absence of astrocyte, the increase in TER and the decrease in the permeability were induced (*p<0.05), whilst these changes were not observed when the cells were treated with atRA (FIG. 8).

[7] = relative to non-treated group, p<0.05
[8] = 14C-labeled, co-culture with atRA-treated U373MG cells

Molecule	inhibition of the effect of AGE-2 to suppress the expression of GDNF, protein level (GDNF [1])	inhibition of the effect of AGE-2 to suppress the expression of GDNF, mRNA level (GDNF [1])	TER ([2]; relative to non-treated group defined as 1, p<0.05)	intercellular permeability (inulin) [2, 7]	intercellular permeability (mannitol) [2, 7]	effectiveness on vascular hyperpermeability (amount of FITC in the eyes) (diabetic model mice; middle stage diabetic group, Am580 3.75 mg/kg)	GDNP expression (GDNF [3])	suppression of the vascular permeability (expression of GDNF divided by expression of VEGF) (GDNF [3])	expression of GDNF mRNA (GDNF [3])	expression of VRGF (VEGF)	permeability of inulin (5 kDa) [4, 8]	permeability of mannitol (182 Da) [4, 8]	TER (transepithelial electrical resistance), barrier function of the vascular endothelial cells ([4]; co-culture with U373MG cells treated with atRA)	urine sugar (US) (diabetic model mice; diabetic mice, compared to the non-treated group)	time at which the increase in GDNF expression reached a plateau level (GDNF [5])	GDNF mRNA level expression (GDNF [5]; 10 nM or 100 nM, after 3 hours and 24 hours)	TER [6]	permeability [6]
CC1(C)CCC(C)(C)c2cc(C(=O)Nc3ccc(C(=O)O)cc3)ccc21 [Am580, 4-[(5,6,7,8-tetrahydro-5,5,8,8-tetramethyl-2-naphthalenyl)carboxamide]benzoic acid]	strongly inhibited	strongly inhibited	more effective than atRA, and much effective than Am80	most effectively suppressed	most effectively suppressed	higher effectiveness than atRA	significantly increases	about three-fold	induced the expression of GDNF mRNA in a dose-dependent and time-dependent manner	suppressed	–	–	–	–	–	–	–	–
CC1=C(/C=C/C(C)=C/C=C/C(C)=C/C(=O)O)C(C)(C)CCC1 [atRA, all-trans retinoic acid]	strongly inhibited	strongly inhibited	–	–	–	–	significantly increases	about three-fold	induced the expression of GDNF mRNA in a dose-dependent and time-dependent manner	suppressed	significantly suppressed	significantly suppressed	enhanced	Significantly lower	about 3 hours	increased in relation to the elevated concentration	not observed	not observed
recombinant protein of GDNF: recombinant glial cell line-derived neurotrophic factor (protein, UniProt P39905 78-211, looked up) Glial cell line-derived …: SPDKQMAVLPRRERNRQAAAANPENSRGKGRRGQRGKNRGCVLTAIHLNVTDLGLGYETKEELIFRYCSGSCDAAETTYDKILKNLSRNRRLVSDKVGQACCRPIAFDDDLSFLDDNLVYHILRKHSAKRCGCI	–	–	–	–	–	–	–	–	–	–	–	–	–	–	–	–	increase	decrease
